In BindingDB's records for doi:10.1016/j.bmc.2023.117534 (Zunyi Medical University, 2023):

Assays:
[1] = Inhibition of wild type EGFR in mouse BaF3 cells assessed as cell growth inhibition measured after 72 hrs by CellTiter-Glo assay
[2] = Inhibition of EGFR L858R/T790M/C797S triple mutant in human NCI-H1975 cells assessed as cell growth inhibition measured after 72 hrs by CellTiter-Glo assay

Compound | IC50 [1] [nM] | IC50 [2] [µM]
COc1cc2ncnc(NCc3ccc(NC(=O)C(c4ccccc4)N4Cc5ccccc5C4=O)cc3)c2cc1OCCCN1CCOCC1 (stereo not drawn) | 1450 | 12.4
O=C(Nc1nccs1)C(c1ccccc1)N1Cc2ccccc2C1=O (stereo not drawn) | > 10000 | –
